Test results: ChEMBL document CHEMBL3525934 (Drug Metab Dispos, 2013)

What was measured:
Type in all cases: ADME
Details in all cases: 0.5 h
Cytochrome P450 2D6 [1] = molecular target: T1, Cytochrome P450 2D6 (Homo sapiens, UniProt P10635); experiment: Drug metabolism in supersomes expressing human recombinant CYP2D6 assessed as enzyme-mediated N-desmethylclozapine metabolite formation at 10 uM after 30 mins measured per nmol of P450 by HPLC analysis
Cytochrome P450 2D6 [2] = molecular target: T1, Cytochrome P450 2D6; experiment: Drug metabolism in supersomes expressing human recombinant CYP2D6 assessed as enzyme-mediated cyanide adduct formation at 100 uM after 30 mins measured per nmol of P450 by HPLC analysis in presence of KCN
Cytochrome P450 1A1 = molecular target: T2, Cytochrome P450 1A1 (Homo sapiens, UniProt P04798); experiment: Drug metabolism in supersomes expressing human recombinant CYP1A1 assessed as enzyme-mediated N-desmethylclozapine metabolite formation at 10 uM after 30 mins measured per nmol of P450 by HPLC analysis
T2 sequence (P04798 whole entry): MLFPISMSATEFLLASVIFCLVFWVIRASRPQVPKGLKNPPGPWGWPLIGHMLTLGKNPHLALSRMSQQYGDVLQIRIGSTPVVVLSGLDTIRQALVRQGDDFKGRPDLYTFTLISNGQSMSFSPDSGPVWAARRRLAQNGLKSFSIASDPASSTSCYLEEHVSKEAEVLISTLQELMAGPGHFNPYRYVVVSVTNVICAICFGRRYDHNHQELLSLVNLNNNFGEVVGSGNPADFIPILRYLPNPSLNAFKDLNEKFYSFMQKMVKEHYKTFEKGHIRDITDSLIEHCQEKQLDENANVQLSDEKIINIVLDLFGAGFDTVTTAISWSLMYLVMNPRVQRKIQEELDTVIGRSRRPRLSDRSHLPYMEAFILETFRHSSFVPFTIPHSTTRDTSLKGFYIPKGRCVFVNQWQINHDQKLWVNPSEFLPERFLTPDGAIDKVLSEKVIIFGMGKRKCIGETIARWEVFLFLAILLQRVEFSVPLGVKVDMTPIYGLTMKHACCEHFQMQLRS

Cytochrome P450 1A2 = molecular target: T3, Cytochrome P450 1A2 (Homo sapiens, UniProt P05177); experiment: Drug metabolism in supersomes expressing human recombinant CYP1A2 assessed as enzyme-mediated N-desmethylclozapine metabolite formation at 10 uM after 30 mins measured per nmol of P450 by HPLC analysis
T3 sequence (P05177 whole entry): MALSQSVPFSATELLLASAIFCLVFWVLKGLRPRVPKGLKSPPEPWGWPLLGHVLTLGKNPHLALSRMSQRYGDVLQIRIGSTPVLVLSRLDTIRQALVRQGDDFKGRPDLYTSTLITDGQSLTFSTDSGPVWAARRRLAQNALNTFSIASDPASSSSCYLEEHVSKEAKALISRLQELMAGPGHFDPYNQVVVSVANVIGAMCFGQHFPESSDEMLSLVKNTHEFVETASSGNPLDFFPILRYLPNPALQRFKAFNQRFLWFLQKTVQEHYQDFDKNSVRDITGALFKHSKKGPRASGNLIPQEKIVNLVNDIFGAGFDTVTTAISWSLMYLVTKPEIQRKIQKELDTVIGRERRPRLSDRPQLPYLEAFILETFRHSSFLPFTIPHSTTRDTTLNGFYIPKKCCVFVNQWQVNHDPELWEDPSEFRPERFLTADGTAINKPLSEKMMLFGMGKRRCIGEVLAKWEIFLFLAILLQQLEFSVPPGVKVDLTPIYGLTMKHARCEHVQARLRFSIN

Cytochrome P450 2C8 = molecular target: T4, Cytochrome P450 2C8 (Homo sapiens, UniProt P10632); experiment: Drug metabolism in supersomes expressing human recombinant CYP2C8 assessed as enzyme-mediated clozapine-N-oxide metabolite formation at 10 uM after 30 mins measured per nmol of P450 by HPLC analysis
T4 sequence (P10632 whole entry): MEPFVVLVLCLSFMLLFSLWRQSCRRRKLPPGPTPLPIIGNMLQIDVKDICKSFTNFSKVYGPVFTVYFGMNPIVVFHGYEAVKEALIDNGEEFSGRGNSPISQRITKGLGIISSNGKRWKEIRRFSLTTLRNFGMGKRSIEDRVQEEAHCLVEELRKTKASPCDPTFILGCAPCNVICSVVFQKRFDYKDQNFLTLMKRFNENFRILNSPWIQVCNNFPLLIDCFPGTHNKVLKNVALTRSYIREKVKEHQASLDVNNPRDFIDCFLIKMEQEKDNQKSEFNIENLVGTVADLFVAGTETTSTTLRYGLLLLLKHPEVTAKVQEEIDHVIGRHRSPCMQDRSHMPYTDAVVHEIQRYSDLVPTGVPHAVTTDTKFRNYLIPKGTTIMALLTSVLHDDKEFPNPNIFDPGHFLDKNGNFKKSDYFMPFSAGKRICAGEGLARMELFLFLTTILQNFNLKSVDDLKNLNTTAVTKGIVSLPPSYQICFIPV

Cytochrome P450 2C9 = Cytochrome P450 2C9 (Homo sapiens, UniProt P11712); experiment: Drug metabolism in supersomes expressing human recombinant CYP2C9 assessed as enzyme-mediated clozapine-N-oxide metabolite formation at 10 uM after 30 mins measured per nmol of P450 by HPLC analysis
Cytochrome P450 2C19 [3] = molecular target: T5, Cytochrome P450 2C19 (Homo sapiens, UniProt P33261); experiment: Drug metabolism in supersomes expressing human recombinant CYP2C19 assessed as enzyme-mediated clozapine-N-oxide metabolite formation at 100 uM after 30 mins measured per nmol of P450 by HPLC analysis
Cytochrome P450 2D6 [4] = molecular target: T1, Cytochrome P450 2D6; experiment: Drug metabolism in supersomes expressing human recombinant CYP2D6 assessed as enzyme-mediated total GSH conjugate formation at 10 uM after 30 mins measured per nmol of P450 by HPLC analysis in presence of GSH and hGST P1-1
Cytochrome P450 1B1 = molecular target: T6, Cytochrome P450 1B1 (Homo sapiens, UniProt Q16678); experiment: Drug metabolism in supersomes expressing human recombinant CYP1B1 assessed as enzyme-mediated total GSH conjugate formation at 100 uM after 30 mins measured per nmol of P450 by HPLC analysis in presence of GSH and hGST P1-1
T6 sequence (Q16678 whole entry): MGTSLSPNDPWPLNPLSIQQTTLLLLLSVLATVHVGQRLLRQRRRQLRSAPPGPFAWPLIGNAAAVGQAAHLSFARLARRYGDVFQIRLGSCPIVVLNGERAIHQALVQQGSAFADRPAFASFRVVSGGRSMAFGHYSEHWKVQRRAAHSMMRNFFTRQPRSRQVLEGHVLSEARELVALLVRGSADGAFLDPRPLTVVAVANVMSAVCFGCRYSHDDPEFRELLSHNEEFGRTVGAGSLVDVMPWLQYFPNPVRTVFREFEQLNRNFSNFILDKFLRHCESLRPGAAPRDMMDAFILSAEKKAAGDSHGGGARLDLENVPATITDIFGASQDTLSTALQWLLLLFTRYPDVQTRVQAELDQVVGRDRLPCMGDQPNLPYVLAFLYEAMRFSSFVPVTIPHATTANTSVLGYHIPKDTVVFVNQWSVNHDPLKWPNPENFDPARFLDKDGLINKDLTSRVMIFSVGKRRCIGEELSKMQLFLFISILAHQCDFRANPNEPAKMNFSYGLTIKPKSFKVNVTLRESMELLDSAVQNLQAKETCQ

Cytochrome P450 2C19 [5] = molecular target: T5, Cytochrome P450 2C19; experiment: Drug metabolism in supersomes expressing human recombinant CYP2C19 assessed as enzyme-mediated N-desmethylclozapine metabolite formation at 100 uM after 30 mins measured per nmol of P450 by HPLC analysis

T1 sequence (P10635 whole entry): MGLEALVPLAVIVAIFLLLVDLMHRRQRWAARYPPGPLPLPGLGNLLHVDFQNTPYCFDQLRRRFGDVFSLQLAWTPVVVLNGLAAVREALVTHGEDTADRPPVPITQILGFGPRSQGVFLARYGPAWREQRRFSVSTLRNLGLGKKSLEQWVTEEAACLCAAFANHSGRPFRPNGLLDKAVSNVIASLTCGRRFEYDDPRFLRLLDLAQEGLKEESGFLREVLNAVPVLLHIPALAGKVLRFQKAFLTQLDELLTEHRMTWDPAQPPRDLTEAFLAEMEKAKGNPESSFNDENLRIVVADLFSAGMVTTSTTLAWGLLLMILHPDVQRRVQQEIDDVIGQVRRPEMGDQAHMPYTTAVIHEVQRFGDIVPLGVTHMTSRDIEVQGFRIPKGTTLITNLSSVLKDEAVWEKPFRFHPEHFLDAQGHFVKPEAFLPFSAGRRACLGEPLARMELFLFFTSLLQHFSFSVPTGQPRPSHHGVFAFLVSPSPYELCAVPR
T5 sequence (P33261 whole entry): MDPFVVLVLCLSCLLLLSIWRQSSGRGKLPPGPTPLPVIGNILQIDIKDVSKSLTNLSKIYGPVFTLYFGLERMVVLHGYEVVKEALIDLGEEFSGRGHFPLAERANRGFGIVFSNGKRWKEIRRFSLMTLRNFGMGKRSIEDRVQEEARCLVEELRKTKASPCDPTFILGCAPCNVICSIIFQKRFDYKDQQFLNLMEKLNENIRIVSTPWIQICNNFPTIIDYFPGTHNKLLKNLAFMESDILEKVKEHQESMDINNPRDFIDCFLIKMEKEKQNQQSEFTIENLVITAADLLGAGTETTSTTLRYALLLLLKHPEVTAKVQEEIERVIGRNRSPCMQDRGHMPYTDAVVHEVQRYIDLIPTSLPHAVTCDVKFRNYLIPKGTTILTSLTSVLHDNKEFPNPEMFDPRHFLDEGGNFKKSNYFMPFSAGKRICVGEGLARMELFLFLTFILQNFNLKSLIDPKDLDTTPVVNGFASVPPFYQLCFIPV
Cytochrome P450 2C9, sequence (P11712 whole entry): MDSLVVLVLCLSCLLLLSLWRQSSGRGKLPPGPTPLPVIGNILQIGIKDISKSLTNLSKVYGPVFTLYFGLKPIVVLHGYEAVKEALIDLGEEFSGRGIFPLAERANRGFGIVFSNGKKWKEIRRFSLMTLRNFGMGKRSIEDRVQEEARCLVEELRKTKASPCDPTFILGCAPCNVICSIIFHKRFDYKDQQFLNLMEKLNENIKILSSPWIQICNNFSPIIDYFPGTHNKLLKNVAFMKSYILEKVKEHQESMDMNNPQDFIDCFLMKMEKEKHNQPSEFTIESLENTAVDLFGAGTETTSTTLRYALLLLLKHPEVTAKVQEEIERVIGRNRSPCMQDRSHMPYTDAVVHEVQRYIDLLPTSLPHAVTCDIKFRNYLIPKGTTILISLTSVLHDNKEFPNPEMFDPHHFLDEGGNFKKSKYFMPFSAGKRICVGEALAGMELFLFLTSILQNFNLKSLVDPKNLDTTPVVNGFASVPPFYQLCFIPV

CN1CCN(C2=Nc3cc(Cl)ccc3Nc3ccccc32)CC1 [CLOZAPINE]
Drug metabolism (Cytochrome P450 2D6 [1]): 8.43 nmol/min/nmol P450
Drug metabolism (Cytochrome P450 2D6 [2]): 0.64 nmol/min
Drug metabolism (Cytochrome P450 1A1): 0.64 nmol/min
Drug metabolism (Cytochrome P450 1A2): 1.12 nmol/min
Drug metabolism (Cytochrome P450 2C8): 0.1 nmol/min
Drug metabolism (Cytochrome P450 2C9): 0.065 nmol/min
Drug metabolism (Cytochrome P450 2C19 [3]): 0.58 nmol/min/nmol P450
Drug metabolism (Cytochrome P450 2D6 [4]): 0.47 nmol/min
Drug metabolism (Cytochrome P450 1B1): 0.15 nmol/min
Drug metabolism (Cytochrome P450 2C19 [5]): 5.11 nmol/min
